Our source for the GI50 and TGI values is PubChem BioAssay (NCI).

Among the test systems are DU-145 prostate; RXF 393 renal; HCC-2998 colon; HT29 colon; U251 CNS; M14 melanoma; 786-0 renal; K-562 leukemia; LOX IMVI melanoma; SR leukemia.
Holding throughout (experiment): NCI anticancer screen, dose series, 48 h

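96-well plates; 48 h exposure; 5 concentrations. Endpoints by linear interpolation between flanking doses. Not reached: highest tested concentration assigned. Abbreviation: GI50, concentration required for 50% inhibition of growth. TGI denotes the concentration required for complete inhibition of growth.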 Where only a bound is given, the exact number is not on record here.

As for `Cc1ccc(C2=Nc3c(N)ncnc3NC(c3cccc(Nc4ccnc5cc(C(F)(F)F)ccc45)c3)C2)cc1` (configuration not stated), the GI50 with DU-145 prostate is 6.83 µM; in the assay on RXF 393 renal it was 1.69 µM; in the assay on HCC-2998 colon, 2.59 µM; in the assay on HT29 colon, 2.45 µM; in the assay with U251 CNS it was 3.73 µM; in the assay with M14 melanoma, 2.11 µM. Besides, the GI50 with 786-0 renal is 3.03 µM; with K-562 leukemia it was 3.44 µM; in the assay with LOX IMVI melanoma, 2.34 µM. The TGI in the assay on DU-145 prostate was greater than 100 µM; in the assay with RXF 393 renal it was 3.55 µM; with HCC-2998 colon, 10.5 µM; with HT29 colon it was 7.29 µM; in the assay with U251 CNS, 15.1 µM; in the assay on M14 melanoma it was 5.29 µM. The results for the TGI in the assay with 786-0 renal, in the assay with K-562 leukemia and in the assay with LOX IMVI melanoma were 11.2 µM, greater than 100 µM and 6.13 µM, respectively.

As to `CC(CS(=O)(=O)Cc1ccccc1)C(N)=O` (configuration not stated), the TGI with DU-145 prostate, with HT29 colon, in the assay with SR leukemia, with U251 CNS, in the assay on M14 melanoma and in the assay with 786-0 renal was greater than 100 µM each time. Moreover, the TGI in the assay with K-562 leukemia and in the assay on LOX IMVI melanoma was greater than 100 µM in each case.

With `CC1(CC(=O)O)OC2CCCCCC2O1` (configuration not stated) (tested in a mixture with another compound), the TGI in the assay on DU-145 prostate, in the assay with RXF 393 renal, in the assay on HT29 colon, in the assay with SR leukemia, in the assay with U251 CNS and with M14 melanoma was greater than 100 µM each time. The TGI in the assay on 786-0 renal, with K-562 leukemia and in the assay on LOX IMVI melanoma was greater than 100 µM each time.

As for `O=c1[nH]c(=O)n(C2CC(O)C(CO)O2)cc1C#Cc1ccc(C(F)(F)F)cc1` (configuration not stated), the TGI with RXF 393 renal, in the assay on HCC-2998 colon, in the assay on HT29 colon, with SR leukemia, with U251 CNS and in the assay on M14 melanoma was greater than 100 µM each time. The TGI in the assay on 786-0 renal, in the assay on K-562 leukemia and in the assay on LOX IMVI melanoma was greater than 100 µM in each case.

Consider `CC[C@@]1(OC(=O)CN)C(=O)OCc2c1cc1n(c2=O)Cc2cc3cc(N)ccc3nc2-1`, for which the GI50 was less than 0.01 µM with DU-145 prostate; 0.044 µM with RXF 393 renal; 0.127 µM with HT29 colon; less than 0.01 µM in the assay with U251 CNS; less than 0.01 µM in the assay with M14 melanoma; less than 0.01 µM with 786-0 renal. In the assay on LOX IMVI melanoma, the GI50 was less than 0.01 µM. Also, the TGI was greater than 76.5 µM with DU-145 prostate; 0.371 µM with RXF 393 renal; greater than 100 µM with HT29 colon; 0.122 µM in the assay with M14 melanoma; 0.0409 µM with 786-0 renal; 0.103 µM with LOX IMVI melanoma.

Regarding `O=C(Cc1nc2ccc(C(=O)c3ccccc3)cc2[nH]c1=O)C(=O)Nc1ccccc1[N+](=O)[O-]`, the TGI in the assay with RXF 393 renal, with HCC-2998 colon, in the assay on HT29 colon, in the assay with SR leukemia, in the assay on U251 CNS and in the assay on M14 melanoma was greater than 100 µM in each case. The TGI with 786-0 renal, in the assay on K-562 leukemia and in the assay on LOX IMVI melanoma was greater than 100 µM throughout.

For `COc1ccc(C2=CC(c3cc(OC)c(OC)c(OC)c3)n3ncnc3N2)cc1` (configuration not stated), the GI50 was 0.0648 µM with DU-145 prostate; 0.24 µM with HCC-2998 colon; 0.0381 µM in the assay on HT29 colon; 0.0439 µM in the assay on SR leukemia; 0.0551 µM in the assay on U251 CNS; 0.0333 µM in the assay with M14 melanoma. For the same compound, the GI50 in the assay with 786-0 renal was 0.0448 µM; with K-562 leukemia it was 0.0359 µM; in the assay with LOX IMVI melanoma it was 0.0898 µM. For the same compound, the TGI with DU-145 prostate was 97.8 µM; in the assay with HCC-2998 colon, greater than 100 µM; with HT29 colon it was 11.2 µM; in the assay on SR leukemia, greater than 100 µM; in the assay on U251 CNS, 29.6 µM; with M14 melanoma it was greater than 100 µM. The TGI with 786-0 renal, in the assay with K-562 leukemia and with LOX IMVI melanoma was greater than 100 µM in each case.

For the compound `CN1CCCC1c1cccnc1.O=C(O)c1ccccc1O.O=C([O-])c1ccccc1[OH2+].O=C([O-])c1ccccc1[OH2+].O=C([O-])c1ccccc1[OH2+].[Mn+2]` (configuration not stated), the GI50 in the assay with DU-145 prostate, in the assay on RXF 393 renal, in the assay on HT29 colon, with U251 CNS, in the assay on M14 melanoma and in the assay on 786-0 renal was greater than 100 µM in each case. Besides, the GI50 in the assay on K-562 leukemia and in the assay on LOX IMVI melanoma was greater than 100 µM in each case. Besides, the TGI in the assay with DU-145 prostate, with RXF 393 renal, with HT29 colon, in the assay on U251 CNS, in the assay with M14 melanoma and with 786-0 renal was greater than 100 µM each time. For the same compound, the TGI in the assay on K-562 leukemia and with LOX IMVI melanoma was greater than 100 µM in each case.

As for `CCCCCCCCCCCCCCCC[N+]1(CC)CCCC1`, the GI50 was 0.84 µM in the assay on DU-145 prostate; 0.655 µM with SR leukemia; 0.363 µM in the assay with U251 CNS; 0.474 µM with M14 melanoma; 1.18 µM with 786-0 renal; 0.162 µM in the assay on LOX IMVI melanoma. Also, the TGI in the assay on DU-145 prostate is 2.14 µM; with SR leukemia, 4.42 µM; with U251 CNS, 1.35 µM; with M14 melanoma it was 1.72 µM; in the assay with 786-0 renal it was 2.61 µM; in the assay with LOX IMVI melanoma, 0.454 µM.

In the case of `CC1=C(C#N)C(N)=C2C(C)=C(C#N)C(N)=C12`, the TGI in the assay with RXF 393 renal, in the assay on HCC-2998 colon, in the assay on HT29 colon, in the assay on SR leukemia, in the assay with U251 CNS and with M14 melanoma was greater than 100 µM in each case. Besides, the TGI in the assay with 786-0 renal, in the assay on K-562 leukemia and with LOX IMVI melanoma was greater than 100 µM each time.

Consider `O=C(OCc1ccccc1CN1CCOCC1)c1ccc(Br)cc1`, for which the TGI is greater than 100 µM in the assay with DU-145 prostate; greater than 100 µM with RXF 393 renal; greater than 100 µM with HCC-2998 colon; 44.2 µM with HT29 colon; greater than 100 µM in the assay with U251 CNS; greater than 100 µM in the assay on M14 melanoma. The TGI in the assay on 786-0 renal and in the assay on LOX IMVI melanoma was greater than 100 µM each time.

Consider `CO[C@H]1C=C[C@]23c4cc5c(cc4CN(CC2O)[C@@H]3C1)OCO5` (some centres not stated), for which the TGI in the assay on DU-145 prostate was 7.62 µM; with HCC-2998 colon it was 16.7 µM; with HT29 colon, 39.7 µM; in the assay on U251 CNS it was 38.3 µM; in the assay on M14 melanoma it was greater than 100 µM; in the assay with 786-0 renal it was 16.5 µM. Further, the TGI is greater than 100 µM with K-562 leukemia and 21.3 µM with LOX IMVI melanoma.
